According to patent US12077503B2, “Substituted cyclic amides and their use as herbicides” (FMC CORPORATION, priority 2015, dated 2024):

Assays:
Format in all cases: in vivo
Kochia (Kochia scoparia) [1] = assay: Test A preemergence; details: Bassia scoparia, pre-emergence, 240 h; for pest or weed control at 125 g/ha: 125 g ai/ha, preemergence, visual rating after approx. 10 d, 0 to 100 scale where 0 is no effect and 100 is complete control
Summary of the method: (§1)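 Treatment is preemergence as a directed soil spray after planting, or postemergence at the one- to two-leaf stage, with test chemical in a non-phytotoxic solvent mixture plus surfactant. Plants stay in the greenhouse about 10 d before visual injury scoring on a 0 to 100 scale versus untreated controls.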

[2] = tested on: barnyardgrass (Echinochloa crus-galli); assay: Test A preemergence; details: Echinochloa crus-galli, pre-emergence, 240 h; for pest or weed control at 125 g/ha: 125 g ai/ha, preemergence, visual rating after approx. 10 d, 0 to 100 scale where 0 is no effect and 100 is complete control
Summary of the method: as §1

[3] = tested on: giant foxtail (Setaria faberii); assay: Test A preemergence; details: Setaria faberi, pre-emergence, 240 h; for pest or weed control at 125 g/ha: 125 g ai/ha, preemergence, visual rating after approx. 10 d, 0 to 100 scale where 0 is no effect and 100 is complete control
Summary of the method: as §1

[4] = tested on: pigweed (Amaranthus retroflexus); assay: Test A preemergence; details: Amaranthus retroflexus, pre-emergence, 240 h; for pest or weed control at 125 g/ha: 125 g ai/ha, preemergence, visual rating after approx. 10 d, 0 to 100 scale where 0 is no effect and 100 is complete control
[5] = tested on: ragweed (common ragweed, Ambrosia elatior); assay: Test A preemergence; details: Ambrosia artemisiifolia, pre-emergence, 240 h; for pest or weed control at 125 g/ha: 125 g ai/ha, preemergence, visual rating after approx. 10 d, 0 to 100 scale where 0 is no effect and 100 is complete control
Summary of the method: as §1

[6] = tested on: ryegrass, Italian (Italian ryegrass, Lolium multiflorum); assay: Test A preemergence; details: Lolium multiflorum, pre-emergence, 240 h; for pest or weed control at 125 g/ha: 125 g ai/ha, preemergence, visual rating after approx. 10 d, 0 to 100 scale where 0 is no effect and 100 is complete control
Summary of the method: as §1

[7] = tested on: Galium (catchweed bedstraw, Galium aparine); assay: Test A postemergence; details: Galium, post-emergence, 240 h, read-out: Plant response rating, Galium; for pest or weed control at 125 g/ha: 125 g ai/ha, postemergence, visual injury after approximately 10 d, 0 to 100 scale (0 no effect, 100 complete control)
Summary of the method: as §1

Kochia (Kochia scoparia) [8] = assay: Test A postemergence; details: Bassia scoparia, post-emergence, 240 h, read-out: Plant response rating, Kochia; for pest or weed control at 125 g/ha: 125 g ai/ha, postemergence, visual injury after approximately 10 d, 0 to 100 scale (0 no effect, 100 complete control)
Summary of the method: as §1

[9] = tested on: barnyardgrass (Echinochloa crus-galli); assay: Test A postemergence; details: Echinochloa crus-galli, post-emergence, 240 h, read-out: Plant response rating, Barnyardgrass; for pest or weed control at 125 g/ha: 125 g ai/ha, postemergence, visual injury after approximately 10 d, 0 to 100 scale (0 no effect, 100 complete control)
Summary of the method: as §1

[10] = tested on: blackgrass (Alopecurus myosuroides); assay: Test A postemergence; details: Alopecurus myosuroides, post-emergence, 240 h, read-out: Plant response rating, Blackgrass; for pest or weed control at 125 g/ha: 125 g ai/ha, postemergence, visual injury after approximately 10 d, 0 to 100 scale (0 no effect, 100 complete control)
Summary of the method: as §1

corn (Zea mays) = assay: Test A postemergence; details: Zea mays, post-emergence, 240 h; for Corn plant response rating (crop injury, 0 = no effect, 100 = complete kill) at 125 g/ha: 125 g ai/ha, postemergence, visual injury after approximately 10 d, 0 to 100 scale (0 no effect, 100 complete control)
Summary of the method: as §1

[11] = tested on: giant foxtail (Setaria faberii); assay: Test A postemergence; details: Setaria faberi, post-emergence, 240 h, read-out: Plant response rating, Foxtail, Giant; for pest or weed control at 125 g/ha: 125 g ai/ha, postemergence, visual injury after approximately 10 d, 0 to 100 scale (0 no effect, 100 complete control)
Summary of the method: as §1

[12] = tested on: pigweed (Amaranthus retroflexus); assay: Test A postemergence; details: Amaranthus retroflexus, post-emergence, 240 h, read-out: Plant response rating, Pigweed; for pest or weed control at 125 g/ha: 125 g ai/ha, postemergence, visual injury after approximately 10 d, 0 to 100 scale (0 no effect, 100 complete control)
Summary of the method: as §1

[13] = tested on: ragweed (common ragweed, Ambrosia elatior); assay: Test A postemergence; details: Ambrosia artemisiifolia, post-emergence, 240 h, read-out: Plant response rating, Ragweed; for pest or weed control at 125 g/ha: 125 g ai/ha, postemergence, visual injury after approximately 10 d, 0 to 100 scale (0 no effect, 100 complete control)
Summary of the method: as §1

[14] = tested on: wheat (Triticum aestivum); assay: Test A postemergence; details: Triticum aestivum, post-emergence, 240 h, read-out: Plant response rating, Wheat
Summary of the method: as §1

[15] = read-out: Plant response rating, Kochia
[16] = read-out: Plant response rating, Barnyardgrass
[17] = read-out: Plant response rating, Foxtail, Giant
[18] = read-out: Plant response rating, Pigweed
[19] = read-out: Plant response rating, Ragweed
[20] = read-out: Plant response rating, Ryegrass, Italian
[21] = Postemergence, 31 g ai/ha, visual injury after approx. 10 d, 0 to 100 scale, 0 no effect, 100 complete control

Structure (SMILES) | pest or weed control at 125 g/ha (Kochia (Kochia scoparia) [1]; [15]) | pest or weed control at 125 g/ha [2, 16] | pest or weed control at 125 g/ha [3, 17] | pest or weed control at 125 g/ha [4, 18] | pest or weed control at 125 g/ha [5, 19] | pest or weed control at 125 g/ha [6, 20] | pest or weed control at 125 g/ha [7] | pest or weed control at 125 g/ha (Kochia (Kochia scoparia) [8]) | pest or weed control at 125 g/ha [9] | pest or weed control at 125 g/ha [10] | Corn plant response rating (crop injury, 0 = no effect, 100 = complete kill) at 125 g/ha (corn (Zea mays)) | pest or weed control at 125 g/ha [11] | pest or weed control at 125 g/ha [12] | pest or weed control at 125 g/ha [13] | other results
Cc1cc([C@H]2CN(C)C(=O)[C@@H]2C(=O)Nc2ccccc2F)cc(C)c1C [Compound 797] | 20% | 90% | 90% | 20% | 0% | 50% | 30% | 0% | 90% | 0% | 70% | 90% | 20% | 0% | pest or weed control at 31 g/ha (Kochia (Kochia scoparia) [1]; Preemergence, 31 g ai/ha, 0 to 100 scale (0 no effect, 100 complete control), read-out: Plant response rating, Kochia): 0%; pest or weed control at 31 g/ha ([2]; Preemergence, 31 g ai/ha, 0 to 100 scale (0 no effect, 100 complete control), read-out: Plant response rating, Barnyardgrass): 80%; pest or weed control at 31 g/ha ([3]; Preemergence, 31 g ai/ha, 0 to 100 scale (0 no effect, 100 complete control), read-out: Plant response rating, Foxtail, Giant): 90%; pest or weed control at 31 g/ha ([4]; Preemergence, 31 g ai/ha, 0 to 100 scale (0 no effect, 100 complete control), read-out: Plant response rating, Pigweed): 0%; pest or weed control at 31 g/ha ([5]; Preemergence, 31 g ai/ha, 0 to 100 scale (0 no effect, 100 complete control), read-out: Plant response rating, Ragweed): 0%; pest or weed control at 31 g/ha ([6]; Preemergence, 31 g ai/ha, 0 to 100 scale (0 no effect, 100 complete control), read-out: Plant response rating, Ryegrass, Italian): 0%; pest or weed control at 31 g/ha [7, 21]: 0%; pest or weed control at 31 g/ha (Kochia (Kochia scoparia) [8]; [21]): 0%; pest or weed control at 31 g/ha [9, 21]: 90%; pest or weed control at 31 g/ha [10, 21]: 0%; Corn plant response rating (crop injury, 0 = no effect, 100 = complete kill) at 31 g/ha (corn (Zea mays); [21]): 60%; pest or weed control at 31 g/ha [11, 21]: 80%; pest or weed control at 31 g/ha [12, 21]: 0%; pest or weed control at 31 g/ha [13, 21]: 0%; plant injury at 31 g/ha [14, 21]: 0%
O=C1NC[C@H](c2ccc3c(c2)CCO3)[C@H]1C(=O)Nc1ccccc1F [Compound 786] | 0% | 80% | 90% | 0% | 0% | 0% | 10% | 0% | 80% | 0% | 0% | 40% | 0% | 0% | pest or weed control at 500 g/ha (Kochia (Kochia scoparia) [1]; 500 g ai/ha, Preemergence, visual injury vs untreated controls after approximately 10 d, read-out: Kochia plant response rating (0 to 100 scale where 0 is no effect and 100 is complete control)): 0%; pest or weed control at 500 g/ha ([2]; 500 g ai/ha, Preemergence, visual injury vs untreated controls after approximately 10 d, read-out: Barnyardgrass plant response rating (0 to 100 scale where 0 is no effect and 100 is complete control)): 90%; pest or weed control at 500 g/ha ([3]; 500 g ai/ha, Preemergence, visual injury vs untreated controls after approximately 10 d, read-out: Foxtail, Giant plant response rating (0 to 100 scale where 0 is no effect and 100 is complete control)): 90%; pest or weed control at 500 g/ha ([4]; 500 g ai/ha, Preemergence, visual injury vs untreated controls after approximately 10 d, read-out: Pigweed plant response rating (0 to 100 scale where 0 is no effect and 100 is complete control)): 0%; pest or weed control at 500 g/ha ([5]; 500 g ai/ha, Preemergence, visual injury vs untreated controls after approximately 10 d, read-out: Ragweed plant response rating (0 to 100 scale where 0 is no effect and 100 is complete control)): 0%; pest or weed control at 500 g/ha ([6]; 500 g ai/ha, Preemergence, visual injury vs untreated controls after approximately 10 d, read-out: Ryegrass, Italian plant response rating (0 to 100 scale where 0 is no effect and 100 is complete control)): 0%; plant injury at 125 g/ha ([14]; 125 g ai/ha, postemergence, visual injury after approximately 10 d, 0 to 100 scale (0 no effect, 100 complete control)): 0%
